*1 amine or outer side, *2 acyl side, *3 side chain or, on linkers, in order; H or OH if unused. Where a SMILES comes first, the peptide text is derived from it. Bridges are numbered along the chain shown (N, C = ends). [ ]: non-standard residue; d: D form. The star is where a group is joined. ξ: configuration not given here. X1 = CC[C@H](C)[C@@H](N[*:1])[C@@H](O)CC(=O)O[C@H](C(=O)[C@H](C)C(=O)[*:2])C(C)C; Benzoyl(4-benzoyl) = O=C(c1ccccc1)c1ccc(C(=O)*)cc1; NMeY = CN[C@@H](Cc1ccc(O)cc1)C(=O)O; dNMeL = CN[C@H](CC(C)C)C(=O)O; Ahx = NCCCCCC(=O)O; ξP = O=C(O)C1CCCN1
Assays:
Assay type in all cases: functional
[1] = The compound was evaluated for total growth inhibition in NCI-60 tumor cells.; conditions: Homo sapiens
[2] = The compound was evaluated for growth inhibition in NCI-60 tumor cells.; conditions: Homo sapiens
[3] = The compound was evaluated for toxicity in NCI-60 tumor cells.; conditions: Homo sapiens
[4] = The compound was evaluated for inhibition of protein biosynthesis.

Row | Structure (SMILES) | TGI [1] | GI50 [2] | LC50 [3] | IC50 [4]
1 | CC[C@H](C)[C@H]1NC(=O)[C@@H](NC(=O)[C@@H](CC(C)C)N(C)C(=O)CCCCCNC(=O)c2ccc(C(=O)c3ccccc3)cc2)[C@@H](C)OC(=O)[C@H](Cc2ccc(OC)cc2)N(C)C(=O)C2CCCN2C(=O)[C@H](CC(C)C)NC(=O)[C@@H](C)C(=O)[C@H](C(C)C)OC(=O)C[C@@H]1O (stereo partly specified) ({Benzoyl(4-benzoyl)-Ahx}-[dNMeL]T[X1]L[ξP][NMeY](Me); ester 2-C) | 21 µM | 0.0043 µM | 19 µM | 24 µM
2 | CC[C@H](C)[C@H]1NC(=O)[C@@H](NC(=O)[C@@H](CC(C)C)N(C)C(=O)c2ccc(C(=O)c3ccccc3)cc2)[C@@H](C)OC(=O)[C@H](Cc2ccc(OC)cc2)N(C)C(=O)C2CCCN2C(=O)[C@H](CC(C)C)NC(=O)[C@@H](C)C(=O)[C@H](C(C)C)OC(=O)C[C@@H]1O (stereo partly specified) ({Benzoyl(4-benzoyl)}-[dNMeL]T[X1]L[ξP][NMeY](Me); ester 2-C) | 0.35 µM | 0.003 µM | 15 µM | 4 µM
3 | CC[C@H](C)[C@H]1NC(=O)[C@@H](NC(=O)[C@@H](CC(C)C)N(C)C(=O)CNC(=O)c2ccc(C(=O)c3ccccc3)cc2)[C@@H](C)OC(=O)[C@H](Cc2ccc(OC)cc2)N(C)C(=O)C2CCCN2C(=O)[C@H](CC(C)C)NC(=O)[C@@H](C)C(=O)[C@H](C(C)C)OC(=O)C[C@@H]1O (stereo partly specified) ({Benzoyl(4-benzoyl)}-G[dNMeL]T[X1]L[ξP][NMeY](Me); ester 3-C) | 2 µM | 0.013 µM | 23 µM | 4.5 µM
4 | CC[C@H](C)[C@H]1NC(=O)[C@@H](NC(=O)[C@@H](CC(C)C)N(C)C(=O)CCCCCNC(=O)CCCCCNC(=O)c2ccc(C(=O)c3ccccc3)cc2)[C@@H](C)OC(=O)[C@H](Cc2ccc(OC)cc2)N(C)C(=O)C2CCCN2C(=O)[C@H](CC(C)C)NC(=O)[C@@H](C)C(=O)[C@H](C(C)C)OC(=O)C[C@@H]1O (stereo partly specified) | 5 µM | 0.017 µM | 48 µM | 19 µM
